According to PubChem BioAssay (NCI):
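Growth conditions: 96-well plates. Treatment: test compound, 48 hours, 5 concentrations. Analysis: linear interpolation between bracketing concentrations; unreached endpoints set to highest concentration. At the GI50, growth is halved. TGI: total growth inhibition.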

What was measured:
Experiment in all cases: NCI-60 cell line screen, 48 h
NCI-H226 lung = system: NCI-H226 lung
U251 CNS = system: U251 CNS
OVCAR-8 ovarian = system: OVCAR-8 ovarian
NCI/ADR-RES ovarian = system: NCI/ADR-RES ovarian
SK-OV-3 ovarian = system: SK-OV-3 ovarian
SN12C renal = system: SN12C renal
DU-145 prostate = system: DU-145 prostate
KM12 colon = system: KM12 colon
MDA-MB-435 = system: MDA-MB-435
K-562 leukemia = system: K-562 leukemia
ACHN renal = system: ACHN renal
SK-MEL-2 melanoma = system: SK-MEL-2 melanoma
MDA-MB-231 breast = system: MDA-MB-231 breast
OVCAR-3 ovarian = system: OVCAR-3 ovarian
NCI-H23 lung = system: NCI-H23 lung
LOX IMVI melanoma = system: LOX IMVI melanoma
UACC-62 melanoma = system: UACC-62 melanoma
UACC-257 melanoma = system: UACC-257 melanoma
SF-295 CNS = system: SF-295 CNS
CCRF-CEM leukemia = system: CCRF-CEM leukemia
PC-3 prostate = system: PC-3 prostate
MCF7 breast = system: MCF7 breast
RPMI-8226 leukemia = system: RPMI-8226 leukemia
SW-620 colon = system: SW-620 colon
A498 renal = system: A498 renal
HCC-2998 colon = system: HCC-2998 colon
OVCAR-5 ovarian = system: OVCAR-5 ovarian
HCT-116 colon = system: HCT-116 colon
MOLT-4 leukemia = system: MOLT-4 leukemia
COLO 205 colon = system: COLO 205 colon
TK-10 renal = system: TK-10 renal
MALME-3M melanoma = system: MALME-3M melanoma
SNB-75 CNS = system: SNB-75 CNS
NCI-H460 lung = system: NCI-H460 lung
IGROV1 ovarian = system: IGROV1 ovarian
HS 578T breast = system: HS 578T breast
HT29 colon = system: HT29 colon
M14 melanoma = system: M14 melanoma
HCT-15 colon = system: HCT-15 colon
NCI-H522 lung = system: NCI-H522 lung
SF-268 CNS = system: SF-268 CNS
T-47D breast = system: T-47D breast
786-0 renal = system: 786-0 renal
SF-539 CNS = system: SF-539 CNS
RXF 393 renal = system: RXF 393 renal
SNB-19 CNS = system: SNB-19 CNS
A549 NSCLC = system: A549 NSCLC
UO-31 renal = system: UO-31 renal
SR leukemia = system: SR leukemia
SK-MEL-5 melanoma = system: SK-MEL-5 melanoma
HOP-92 NSCLC = system: HOP-92 NSCLC
BT-549 breast = system: BT-549 breast
HL-60(TB) leukemia = system: HL-60(TB) leukemia
SK-MEL-28 melanoma = system: SK-MEL-28 melanoma
HOP-62 NSCLC = system: HOP-62 NSCLC
CAKI-1 renal = system: CAKI-1 renal
OVCAR-4 ovarian = system: OVCAR-4 ovarian

SMILES: CS(=O)(=O)Nc1ccc(Nc2c3ccccc3nc3cc(Cl)ccc23)cc1
- GI50 (NCI-H226 lung): 0.672 µM
- TGI (NCI-H226 lung): 6.17 µM
- GI50 (U251 CNS): 0.828 µM
- TGI (U251 CNS): 13.5 µM
- GI50 (OVCAR-8 ovarian): 1.76 µM
- TGI (OVCAR-8 ovarian): 15.6 µM
- GI50 (NCI/ADR-RES ovarian): 3.93 µM
- TGI (NCI/ADR-RES ovarian): 37.5 µM
- GI50 (SK-OV-3 ovarian): 1.28 µM
- TGI (SK-OV-3 ovarian): 13.3 µM
- GI50 (SN12C renal): 0.654 µM
- TGI (SN12C renal): 16.1 µM
- GI50 (DU-145 prostate): 0.646 µM
- TGI (DU-145 prostate): 14 µM
- GI50 (KM12 colon): 3.81 µM
- TGI (KM12 colon): 18.5 µM
- GI50 (MDA-MB-435): 3.48 µM
- TGI (MDA-MB-435): 17.1 µM
- GI50 (K-562 leukemia): 2.11 µM
- TGI (K-562 leukemia): > 48.6 µM
- GI50 (ACHN renal): 0.343 µM
- TGI (ACHN renal): 9.57 µM
- GI50 (SK-MEL-2 melanoma): 9.16 µM
- TGI (SK-MEL-2 melanoma): 22.7 µM
- GI50 (MDA-MB-231 breast): 4.56 µM
- TGI (MDA-MB-231 breast): 19.8 µM
- GI50 (OVCAR-3 ovarian): 7.28 µM
- TGI (OVCAR-3 ovarian): 21.5 µM
- GI50 (NCI-H23 lung): 1.67 µM
- TGI (NCI-H23 lung): 18.9 µM
- GI50 (LOX IMVI melanoma): 0.406 µM
- TGI (LOX IMVI melanoma): 4.79 µM
- GI50 (UACC-62 melanoma): 0.988 µM
- TGI (UACC-62 melanoma): 12.9 µM
- GI50 (UACC-257 melanoma): 3.33 µM
- TGI (UACC-257 melanoma): 16.7 µM
- GI50 (SF-295 CNS): 1.07 µM
- TGI (SF-295 CNS): 15.3 µM
- GI50 (CCRF-CEM leukemia): 0.317 µM
- TGI (CCRF-CEM leukemia): 33.7 µM
- GI50 (PC-3 prostate): 2.47 µM
- TGI (PC-3 prostate): 19.4 µM
- GI50 (MCF7 breast): 0.389 µM
- TGI (MCF7 breast): 13.4 µM
- GI50 (RPMI-8226 leukemia): 2.56 µM
- TGI (RPMI-8226 leukemia): 25.6 µM
- GI50 (SW-620 colon): 0.686 µM
- TGI (SW-620 colon): 15.4 µM
- GI50 (A498 renal): 1.15 µM
- TGI (A498 renal): 7.22 µM
- GI50 (HCC-2998 colon): 7.57 µM
- TGI (HCC-2998 colon): 22.9 µM
- GI50 (OVCAR-5 ovarian): 4.99 µM
- TGI (OVCAR-5 ovarian): 22.3 µM
- GI50 (HCT-116 colon): 0.84 µM
- TGI (HCT-116 colon): 13.1 µM
- GI50 (MOLT-4 leukemia): 0.214 µM
- TGI (MOLT-4 leukemia): 16.2 µM
- GI50 (COLO 205 colon): 1.51 µM
- TGI (COLO 205 colon): 15.6 µM
- GI50 (TK-10 renal): 5.07 µM
- TGI (TK-10 renal): 18.7 µM
- GI50 (MALME-3M melanoma): 1.96 µM
- TGI (MALME-3M melanoma): 12.3 µM
- GI50 (SNB-75 CNS): 1.29 µM
- TGI (SNB-75 CNS): 15.9 µM
- GI50 (NCI-H460 lung): 0.0962 µM
- TGI (NCI-H460 lung): 11 µM
- GI50 (IGROV1 ovarian): 1.62 µM
- TGI (IGROV1 ovarian): 19 µM
- GI50 (HS 578T breast): 2.83 µM
- TGI (HS 578T breast): 40.4 µM
- GI50 (HT29 colon): 2.57 µM
- TGI (HT29 colon): 14.1 µM
- GI50 (M14 melanoma): 0.812 µM
- TGI (M14 melanoma): 15.1 µM
- GI50 (HCT-15 colon): 1.37 µM
- TGI (HCT-15 colon): 14.2 µM
- GI50 (NCI-H522 lung): 2.33 µM
- TGI (NCI-H522 lung): 15.4 µM
- GI50 (SF-268 CNS): 2.57 µM
- TGI (SF-268 CNS): 19.6 µM
- GI50 (T-47D breast): 0.987 µM
- TGI (T-47D breast): 13.3 µM
- GI50 (786-0 renal): 0.857 µM
- TGI (786-0 renal): 15.6 µM
- GI50 (SF-539 CNS): 1.18 µM
- TGI (SF-539 CNS): 13.5 µM
- GI50 (RXF 393 renal): 1.77 µM
- TGI (RXF 393 renal): 10.6 µM
- GI50 (SNB-19 CNS): 1.51 µM
- TGI (SNB-19 CNS): 17.5 µM
- GI50 (A549 NSCLC): 0.188 µM
- TGI (A549 NSCLC): 12.1 µM
- GI50 (UO-31 renal): 0.58 µM
- TGI (UO-31 renal): 8.96 µM
- GI50 (SR leukemia): 0.177 µM
- TGI (SR leukemia): 16 µM
- GI50 (SK-MEL-5 melanoma): 1.13 µM
- TGI (SK-MEL-5 melanoma): 2.62 µM
- GI50 (HOP-92 NSCLC): 0.334 µM
- TGI (HOP-92 NSCLC): 4.7 µM
- GI50 (BT-549 breast): 3.16 µM
- TGI (BT-549 breast): 20 µM
- GI50 (HL-60(TB) leukemia): 0.843 µM
- TGI (HL-60(TB) leukemia): 24.6 µM
- GI50 (SK-MEL-28 melanoma): 3.62 µM
- TGI (SK-MEL-28 melanoma): 19.2 µM
- GI50 (HOP-62 NSCLC): 0.958 µM
- TGI (HOP-62 NSCLC): 18 µM
- GI50 (CAKI-1 renal): 0.397 µM
- TGI (CAKI-1 renal): 8.68 µM
- GI50 (OVCAR-4 ovarian): 3.84 µM
- TGI (OVCAR-4 ovarian): 21.7 µM
